Measurements taken from patent publication US20240415819A1, “MACROCYCLIC COMPOUNDS AS PROTEASOME SUBUNIT BETA TYPE-5 INHIBITORS” (Lead Discovery Center GmbH, priority 2021, published 2024).
pIC50: −log10 of the molar value.

Legend:
[1] = system: HT-29 cells; assay: CellTiter-Glo luminescent cell viability assay with HT-29 cells (72h incubation); type: cell-based, human; conditions: Homo sapiens, HT-29, HT29 cells, read-out: CTG HT29
How it was run: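 400 cells per well in DMEM/10% FCS were dosed after 24 h and kept 72 h at 37 °C, 5% CO2. ATP-based luminescence (CellTiter-Glo) normalized to DMSO and 10 μM staurosporine controls; IC50 by dose-response fit.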

[2] = system: A549 (human lung carcinoma cell line); assay: Glo assay of A549 cells (Table 3; ProteasomeGlo plating scheme); type: cell-based; conditions: Homo sapiens; A549 cells; read-out: PGLo A549
How it was run: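 IC50 values (nM) come from a cell-based chymotrypsin-like Proteasome-Glo luminescence assay. Compound exposure ran 105 min at 37° C.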

[3] = molecular target: T1, β5 subunit of the human constitutive proteasome (CPS) (Homo sapiens, UniProt P28074); assay: β5 inhibition assay, human constitutive proteasome (Suc-LLVY-AMC); type: biochemical; conditions: IC50 class, Suc-LLVY-AMC substrate
T1 construct: purchased Boston Biochem E-360
Protocol: The enzymatic activity of the β5 subunit of the human constitutive proteasome (CPS) is analyzed. In another assay, which differs from the assay of the human constitutive proteasome only in using the human immunoproteasome (IPS) the enzymatic activity of the β5 subunit of the human immunoproteasome (IPS) is analyzed. […] Inhibition is indicated as IC50 [nM] (“-”=not measured).

Question: How did the pIC50 [1] turn out when `Cc1ccc2cc1CNC(=O)[C@H](CCc1ccccc1)NC(=O)[C@@H](NC(=O)Cc1nc(-c3ccncc3)n[nH]1)CC(=O)N1CCCC(CCO2)C1` (stereo partly drawn) [Compound 329, N-((9S,12S)-5^4-methyl-8,11,14-trioxo-9-phenethyl-4-oxa-7,10-diaza-1(3,1)-piperidina-5(1,3)-benzenacyclotetradecaphane-12-yl)-2-(3-(pyridin-4-yl)-1H-1,2,4-triazol-5-yl)acetamide] was run?
Answer: Its pIC50 is greater than 7.00.

Question: What about the pIC50 [2] of the same molecule?
Answer: Its pIC50 is 6.30 to 7.00.

Question: And the pIC50 [3]?
Answer: Its pIC50 is greater than 7.00.

Question: With `Cc1ccc2cc1CNC(=O)C(CCc1ccncc1)NC(=O)[C@@H](NC(=O)C1(c3ccc(N)cc3)CC1)CC(=O)N1CCCC(CCO2)C1` (stereo partly drawn) [Compound 343, 1-(4-aminophenyl)-N-((12S)-5^4-methyl-8,11,14-trioxo-9-(2-(pyridin-4-yl)ethyl)-4-oxa-7,10-diaza-1(3,1)-piperidina-5(1,3)-benzenacyclotetradecaphane-12-yl)cyclopropane-1-carboxamide] as the molecule, how does the pIC50 [1] read?
Answer: Its pIC50 is greater than 7.00.

Question: What about the pIC50 [2] of the same molecule?
Answer: Its pIC50 is greater than 7.00.

Question: What about the pIC50 [3] of the same molecule?
Answer: The pIC50 was greater than 7.00.

Question: With `Cc1ccc2cc1CNC(=O)[C@H](CCc1ccccc1)NC(=O)[C@@H](NC(=O)OCc1ccccc1)CCCCC(=O)NCCCCO2` [Compound 347, benzyl ((13S,16S)-1^4-methyl-8,14,17-trioxo-16-phenethyl-2-oxa-7,15,18-triaza-1(1,3)-benzenacyclononadecaphane-13-yl)carbamate] as the molecule, how does the pIC50 [1] read?
Answer: The pIC50 was greater than 7.00.

Question: What about the pIC50 [2] of the same molecule?
Answer: Its pIC50 is 6.30 to 7.00.

Question: And the pIC50 [3]?
Answer: Its pIC50 is greater than 7.00.

Question: Which results are given for `Cc1ccc2cc1CNC(=O)[C@H](CCc1ccccc1)NC(=O)[C@@H](NC(=O)Cc1ccccc1F)CC(=O)N1CCCC(CCO2)C1` (stereo partly drawn) [Compound 333, 2-(2-fluorophenyl)-N-((9S,12S)-5^4-methyl-8,11,14-trioxo-9-phenethyl-4-oxa-7,10-diaza-1(3,1)-piperidina-5(1,3)-benzenacyclotetradecaphane-12-yl)acetamide]?
Answer: pIC50 [1]: > 7.00; pIC50 [2]: > 7.00; pIC50 [3]: > 7.00

Question: How did the pIC50 [1] turn out when `Cc1ccc2cc1CNC(=O)[C@H](CCc1ccccc1)NC(=O)[C@@H](NC(=O)Cc1nnc(N)s1)CC(=O)N1CCCC(CCO2)C1` (stereo partly drawn) [Compound 310, 2-(5-amino-1,3,4-thiadiazol-2-yl)-N-((9S,12S)-54-methyl-8,11,14-trioxo-9-phenethyl-4-oxa-7,10-diaza-1(3,1)-piperidina-5(1,3)-benzenacyclotetradecaphane-12-yl)acetamide] was run?
Answer: The pIC50 was greater than 7.00.

Question: What about the pIC50 [2] of the same molecule?
Answer: The pIC50 was greater than 7.00.

Question: What about the pIC50 [3] of the same molecule?
Answer: Its pIC50 is greater than 7.00.

Question: `Cc1ccc2cc1CNC(=O)[C@H](CCc1ccccc1)NC(=O)[C@@H](NC(=O)CC(C)(C)C)CC(=O)N1CCCC(CCO2)C1` (stereo partly drawn) [Compound 28, 3,3-dimethyl-N-((9S,12S)-5^4-methyl-8,11,14-trioxo-9-phenethyl-4-oxa-7,10-diaza-1(3,1)-piperidina-5(1,3)-benzenacyclotetradecaphane-12-yl)butanamide] was tested. Which pIC50 [1] did it give?
Answer: Its pIC50 is greater than 7.00.

Question: What about the pIC50 [2] of the same molecule?
Answer: Its pIC50 is greater than 7.00.

Question: And the pIC50 [3]?
Answer: The pIC50 was greater than 7.00.

Question: With `Cc1ccc2cc1CNC(=O)[C@H](CCc1ccccc1)NC(=O)[C@@H](NC(=O)c1ncccn1)CC(=O)N1CCCC(CCO2)C1` (stereo partly drawn) [Compound 32, N-((9S,12S)-5^4-methyl-8,11,14-trioxo-9-phenethyl-4-oxa-7,10-diaza-1(3,1)-piperidina-5(1,3)-benzenacyclotetradecaphane-12-yl)pyrimidine-2-carboxamide] as the molecule, how does the pIC50 [1] read?
Answer: Its pIC50 is greater than 7.00.

Question: And the pIC50 [2]?
Answer: The pIC50 was greater than 7.00.

Question: What about the pIC50 [3] of the same molecule?
Answer: The pIC50 was greater than 7.00.

Question: Which results are given for `CC(=O)N[C@H]1CC(=O)N2CCCC(CCOc3ccc(C)c(c3)CNC(=O)[C@H](CCc3ccccc3)NC1=O)C2` (stereo partly drawn) [Compound 33, N-((9S,12S)-5^4-methyl-8,11,14-trioxo-9-phenethyl-4-oxa-7,10-diaza-1(3,1)-piperidina-5(1,3)-benzenacyclotetradecaphane-12-yl)acetamide]?
Answer: pIC50 [1]: > 7.00; pIC50 [2]: > 7.00; pIC50 [3]: > 7.00

Question: Which results are given for `CC(=O)N[C@H]1CC(=O)N2CCCC(CCOc3ccc(C)c(c3)CNC(=O)C(c3coc(C)n3)NC1=O)C2` (stereo partly drawn) [Compound 553, N-((12S)-5^4-methyl-9-(2-methyloxazol-4-yl)-8,11,14-trioxo-4-oxa-7,10-diaza-1(3,1)-piperidina-5(1,3)-benzenacyclotetradecaphane-12-yl)acetamide]?
Answer: pIC50 [1]: > 7.00; pIC50 [2]: 6.30 to 7.00; pIC50 [3]: > 7.00

Question: What does the source list for `Cc1ccc2cc1CNC(=O)[C@H](CCc1ccccc1)NC(=O)[C@@H](NC(=O)c1ccc3cc(N)ccc3c1)CC(=O)N1CCCC(CCO2)C1` (stereo partly drawn) [Compound 339, 6-amino-N-((9S,12S)-5^4-methyl-8,11,14-trioxo-9-phenethyl-4-oxa-7,10-diaza-1(3,1)-piperidina-5(1,3)-benzenacyclotetradecaphane-12-yl)-2-naphthamide]?
Answer: pIC50 [1]: > 7.00; pIC50 [2]: 6.30 to 7.00; pIC50 [3]: > 7.00

Question: Which results are given for `Cc1ccc2cc1CNC(=O)C(CCc1ccc(C3(C)COC3)cc1)NC(=O)[C@@H](NC(=O)OCc1ccccc1)CC(=O)N1CCCC(CCO2)C1` (stereo partly drawn) [Compound 510, benzyl ((12S)-5^4-methyl-9-(4-(3-methyloxetan-3-yl)phenethyl)-8,11,14-trioxo-4-oxa-7,10-diaza-1(3,1)-piperidina-5(1,3)-benzenacyclotetradecaphane-12-yl)carbamate]?
Answer: pIC50 [1]: > 7.00; pIC50 [2]: > 7.00; pIC50 [3]: > 7.00

Question: With `Cc1ccc2cc1CNC(=O)C(CCc1ccncc1)NC(=O)[C@@H](NC(=O)Cc1ccc(N)cc1F)CC(=O)N1CCCC(CCO2)C1` (stereo partly drawn) [Compound 344, 2-(4-amino-2-fluorophenyl)-N-((12S)-5^4-methyl-8,11,14-trioxo-9-(2-(pyridin-4-yl)ethyl)-4-oxa-7,10-diaza-1(3,1)-piperidina-5(1,3)-benzenacyclotetradecaphane-12-yl)acetamide] as the molecule, how does the pIC50 [1] read?
Answer: The pIC50 was greater than 7.00.

Question: What about the pIC50 [2] of the same molecule?
Answer: Its pIC50 is greater than 7.00.

Question: What about the pIC50 [3] of the same molecule?
Answer: Its pIC50 is greater than 7.00.

Question: Which results are given for `CC(=O)N[C@H]1CC(=O)N2CCCC(CCOc3cccc(c3)CNC(=O)[C@H](CCc3ccccc3)NC1=O)C2` (stereo partly drawn) [Compound 364, N-((9S,12S)-8,11,14-trioxo-9-phenethyl-4-oxa-7,10-diaza-1(3,1)-piperidina-5(1,3)-benzenacyclotetradecaphane-12-yl)acetamide]?
Answer: pIC50 [1]: > 7.00; pIC50 [2]: > 7.00; pIC50 [3]: > 7.00

Question: `CC(=O)c1ccc(CC(=O)N[C@H]2CC(=O)N3CCCC(CCOc4ccc(C)c(c4)CNC(=O)[C@H](CCc4ccccc4)NC2=O)C3)cc1` (stereo partly drawn) [Compound 341, 2-(4-acetylphenyl)-N-((9S,12S)-54-methyl-8,11,14-trioxo-9-phenethyl-4-oxa-7,10-diaza-1(3,1)-piperidina-5(1,3)-benzenacyclotetradecaphane-12-yl)acetamide] was tested. Which pIC50 [1] did it give?
Answer: The pIC50 was greater than 7.00.

Question: And the pIC50 [2]?
Answer: The pIC50 was greater than 7.00.

Question: And the pIC50 [3]?
Answer: The pIC50 was greater than 7.00.

Question: Which results are given for `CC(=O)N[C@H]1CC(=O)N2CCCC(CCOc3ccc(C)c(c3)CNC(=O)C(c3cnn(C)c3)NC1=O)C2` (stereo partly drawn) [Compound 552, N-((12S)-5^4-methyl-9-(1-methyl-1H-pyrazol-4-yl)-8,11,14-trioxo-4-oxa-7,10-diaza-1(3,1)-piperidina-5(1,3)-benzenacyclotetradecaphane-12-yl)acetamide]?
Answer: pIC50 [1]: > 7.00; pIC50 [2]: 6.30 to 7.00; pIC50 [3]: > 7.00

Question: `Cc1ccc2cc1CNC(=O)C(CCc1ccc(S(=O)(=O)O)cc1)NC(=O)[C@@H](NC(=O)OCc1ccccc1)CC(=O)N1CCCC(CCO2)C1` (stereo partly drawn) [Compound 509, 4-(2-((12S)-12-(((benzyloxy)carbonyl)amino)-5^4-methyl-8,11,14-trioxo-4-oxa-7,10-diaza-1(3,1)-piperidina-5(1,3)-benzenacyclotetradecaphane-9-yl)ethyl)benzenesulfonic acid] was tested. Which pIC50 [1] did it give?
Answer: The pIC50 was 6.30 to 7.00.

Question: And the pIC50 [2]?
Answer: The pIC50 was greater than 7.00.

Question: And the pIC50 [3]?
Answer: The pIC50 was greater than 7.00.

Question: What does the source list for `CC(=O)N[C@H]1CC(=O)N2CCCC(CCOc3ccc(C)c(c3)CNC(=O)C(Cn3c(=O)oc4ccccc43)NC1=O)C2` (stereo partly drawn) [Compound 555, N-((12S)-5^4-methyl-8,11,14-trioxo-9-((2-oxobenzo[d]oxazol-3(2H)-yl)methyl)-4-oxa-7,10-diaza-1(3,1)-piperidina-5(1,3)-benzenacyclotetradecaphane-12-yl)acetamide]?
Answer: pIC50 [1]: > 7.00; pIC50 [2]: > 7.00; pIC50 [3]: > 7.00

Question: How did the pIC50 [1] turn out when `Cc1ccc2cc1CNC(=O)C(c1cnn(C)c1)NC(=O)[C@@H](NC(=O)[C@@H](C)c1ccccc1)CC(=O)N1CCCC(CCO2)C1` (stereo partly drawn) [Compound 359, (2S)-N-((12S)-5^4-methyl-9-(1-methyl-1H-pyrazol-4-yl)-8,11,14-trioxo-4-oxa-7,10-diaza-1(3,1)-piperidina-5(1,3)-benzenacyclotetradecaphane-12-yl)-2-phenylpropanamide] was run?
Answer: Its pIC50 is greater than 7.00.

Question: And the pIC50 [2]?
Answer: Its pIC50 is greater than 7.00.

Question: And the pIC50 [3]?
Answer: Its pIC50 is greater than 7.00.

Question: `Cc1ccc2cc1CNC(=O)[C@H](CCc1ccccc1)NC(=O)[C@@H](NC(=O)Cc1cc(O)on1)CC(=O)N1CCCC(CCO2)C1` (stereo partly drawn) [Compound 335, 2-(5-hydroxyisoxazol-3-yl)-N-((9S,12S)-5^4-methyl-8,11,14-trioxo-9-phenethyl-4-oxa-7,10-diaza-1(3,1)-piperidina-5(1,3)-benzenacyclotetradecaphane-12-yl)acetamide] was tested. Which pIC50 [1] did it give?
Answer: The pIC50 was greater than 7.00.

Question: What about the pIC50 [2] of the same molecule?
Answer: The pIC50 was greater than 7.00.

Question: What about the pIC50 [3] of the same molecule?
Answer: Its pIC50 is greater than 7.00.

Question: How did the pIC50 [1] turn out when `CC(=O)N[C@H]1CC(=O)N2CCCC(CCOc3ccc(C)c(c3)CNC(=O)C(c3cc(C)n(C)n3)NC1=O)C2` (stereo partly drawn) [Compound 561, N-((12S)-9-(1,5-dimethyl-1H-pyrazol-3-yl)-5^4-methyl-8,11,14-trioxo-4-oxa-7,10-diaza-1(3,1)-piperidina-5(1,3)-benzenacyclotetradecaphane-12-yl)acetamide] was run?
Answer: Its pIC50 is greater than 7.00.

Question: And the pIC50 [2]?
Answer: Its pIC50 is greater than 7.00.

Question: What about the pIC50 [3] of the same molecule?
Answer: The pIC50 was greater than 7.00.
